{
  "source": "ChEMBL document CHEMBL1148644",
  "about": "“Human PEPT1 pharmacophore distinguishes between dipeptide transport and binding” (J Med Chem, 2006)",
  "key": {"[1]": {"molecular_target": "T1, Solute carrier family 15 member 1 (Homo sapiens, UniProt P46059)", "T1 sequence (P46059 whole entry)": "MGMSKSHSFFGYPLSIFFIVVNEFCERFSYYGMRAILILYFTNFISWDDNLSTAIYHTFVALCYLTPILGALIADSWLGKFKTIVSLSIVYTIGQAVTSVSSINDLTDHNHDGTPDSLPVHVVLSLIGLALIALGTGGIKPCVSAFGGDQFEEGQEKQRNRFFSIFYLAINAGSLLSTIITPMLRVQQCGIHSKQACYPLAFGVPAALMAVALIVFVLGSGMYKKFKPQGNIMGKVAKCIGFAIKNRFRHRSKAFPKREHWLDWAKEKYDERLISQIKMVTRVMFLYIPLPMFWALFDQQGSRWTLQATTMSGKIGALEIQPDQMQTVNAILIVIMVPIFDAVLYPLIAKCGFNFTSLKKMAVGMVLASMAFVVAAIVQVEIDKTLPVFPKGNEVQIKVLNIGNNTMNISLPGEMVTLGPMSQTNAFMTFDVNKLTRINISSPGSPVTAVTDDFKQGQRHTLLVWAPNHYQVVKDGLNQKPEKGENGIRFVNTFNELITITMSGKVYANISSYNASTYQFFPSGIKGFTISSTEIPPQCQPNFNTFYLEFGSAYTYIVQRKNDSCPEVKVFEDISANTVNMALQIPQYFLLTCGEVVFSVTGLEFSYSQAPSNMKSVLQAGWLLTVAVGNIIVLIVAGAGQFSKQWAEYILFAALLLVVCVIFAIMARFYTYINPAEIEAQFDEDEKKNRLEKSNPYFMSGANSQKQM", "assay": "Binding affinity to human PEPT1 assessed as inhibition of [14C]Gly-Sar uptake in MDCK cells", "format": "functional, cell-based", "conditions": "read-out: IC50"}, "[2]": {"molecular_target": "T1, Solute carrier family 15 member 1", "assay": "Activation of human PEPT1 expressed in MDCK cells", "format": "functional, cell-based"}},
  "note": "Where a SMILES comes first, the peptide text is derived from it.",
  "data": [
    {"molecule": "CC(C)[C@H](N)C(=O)N[C@@H](Cc1c[nH]c2ccccc12)C(=O)O", "note": "[VALYLTRYPTOPHAN] (H-Val-Trp-OH)", "values": [
      {"measurement": "IC50", "setting": "[1]", "value": 100, "unit": "µM"},
      {"measurement": "EC50", "setting": "[2]", "value": 40, "unit": "µM"}
    ]}
  ]
}
